{"source": "patent US7807162B2", "about": "“Single domain VHH antibodies against von Willebrand factor” (Ablynx N.V., priority 2005, dated 2010)", "system": "platelet adhesion to endothelial cell-derived ULvWF", "test": "Platelet string formation on ULvWF of histamine-stimulated endothelial cells (perfusion)", "type": "cell-based, human", "conditions": "0.2, 2 and 10 μg/ml; platelets in buffer or TTP plasma; 2.5 dyn/cm2, 4 minutes", "method": "Endothelial cells were obtained from human umbilical cord veins by the method of Maruyama (Z. Zellforsch. Mikrosk. A4nat. 60:69; 1963). Endothelial cells were activated with 100 μM histamine (Sigma-Aldrich, St Louis, Mo.) for 15 minutes at room temperature before the perfusion experiments.\nBlood was drawn from healthy volunteers who denied ingestion of aspirin or other nonsteroidal anti-inflammatory drugs (NSAIDs) for the preceding 10 days into one-tenth volume 3.4% sodium citrate. Platelet-rich plasma (PRP) was prepared from whole blood by centrifugation (10 minutes at 200 g at room temperature). […] The platelet pellet was resuspended in HEPES (N-2-hydroxyethylpiperazine-N′-2-ethanesulfonic acid)-Tyrode buffer (10 mM HEPES, 137 mM NaCl, 2.68 mM KCl, 0.42 mM NaH2PO4, 1.7 mM MgCl2, 5 mM D-glucose, pH 6.5). Prostacyclin (PGI2, 10 ng/mL) was added to prevent platelet activation during the subsequent washing step. Platelets were spun down and resuspended in a small volume of HEPES-Tyrode buffer. This platelet suspension was diluted in HEPES buffer at pH 7.4, or in TTP plasma. […]\nEndothelial cells were isolated from freshly obtained human umbilical cords by collagenase digestion of the interior of the umbilical vein. […] These ULvWF-adhered platelets appear as so-called ‘strings’, which are visible when the perfusion experiment is monitored by real-time video microscopy (FIG. 41). […]"}
{"substance": "ALX-0081: ALX-0081 (SEQ ID NO:98), Nanobody; humanised bivalent nanobody with the 3a linker", "values": [{"measurement": "string formation of platelets on ULvWF", "result": "complete inhibition of string formation"}]}
